In the experiment the test system is epithelial cells. In kind it is cell-based, human.

With `OC[C@H]1O[C@@](CO)(O[C@H]2O[C@H](CO)[C@@H](O)[C@H](O)[C@H]2O)[C@@H](O)[C@@H]1O` [5% Sucrose, sucrose], where the note is “0.5% solution”, the “time after which sticky clumps were invaded by fungi and bacteria” value turned out to be 48 h. For the same compound, for the setting “0.5% solution, isolated epithelial cells, ambient temperature”, the “cell replication / tissue formation observed” value was “Rapid cell replication was observed in form of sticky clumps with no distinct differentiation into tissue formation”. Besides, the “Potential for Tissue Growth” value (ambient temperature (24° C.)) is “sticky lump”.

The values above are taken from US20030096015A1, “Cytogenic/nucleogenic healing” (priority 1997, published 2003).
